Experimental data reported in patent US5069909A, “Transdermal administration of buprenorphine” (Cygnus Therapeutic Systems, priority 1990, dated 1991).
In brackets after ≈: the same amount, converted by molar mass. Where a name gives a salt, the structure may show the parent alone. Read-outs that look alike come from different tables or passages of the source.

Experiments:
physchem = assay type: physicochemical; conditions: for solubility thermodynamic: read-out: Cs
Method: Solubility Determination: The solubility of buprenorphine base and HCl salt in various vehicles was obtained by equilibrating a large excess of solute with the vehicle in a water-jacketed glass container. Temperature was maintained at 32° C. by a constant temperature water bath and vigorous mixing with a magnetic stirring bar. Equilibrium time for all the studies was ≥48 hr. An excess of solute was always present in the slurries. Samples were taken, filtered through glass wool-tipped pipets, and an appropriate volume of filtrate was diluted with acetonitrile and assayed by HPLC. The procedure was repeated three times and an average value calculated.

[1] = assay type: in vitro ADME, Human; conditions: 32° C.; for Jskin: aqueous (deionized water) saturated solution, side-by-side cells; for increase of skin flux upon stripping (fold): stripped vs heat-separated epidermis
Method: (§1) Stirring was set at 200 rpm throughout the experiment. […] The samples were assayed by HPLC.
In order to determine the principal diffusional barrier of skin in transporting both base and HCl salt across the membrane, the permeating of drug through heat-separated epidermis was compared with stripped epidermis. Stripping removes most of the stratum corneum. The skin was stripped with Scotch brand cellophane tape to remove stratum corneum twenty times. Permeations of the base and the HCl salt through heat-separated epidermis and stripped epidermis from saturated aqueous solution at 32° C. are shown in Table 7.

[2] = flow-through cells
[3] = Octanol-water partition coefficient
in vitro = in vitro ADME, Human; conditions: for Jskin: n=3; for Papp: human, P = J/Cs, read-out: P (permeability coefficient) (converted)
Method: as §1

pKa = assay type: physicochemical
[4] = cited from earlier work

## CO[C@@]12CC[C@@]3(C[C@@H]1[C@](C)(O)C(C)(C)C)[C@H]1Cc4ccc(O)c5c4[C@@]3(CCN1CC1CC1)[C@H]2O5 [Buprenorphine HCl]
physchem
  solubility (in words): considerably higher than the free base form's
physchem; deionized water
  Solubility: 12000 µg/mL
physchem; deionized water, water
  solubility: 12000 µg/mL
physchem; propylene glycol, organic solvent or mixture
  solubility: 22500 µg/mL
[1]; aqueous saturated solution
  skin flux of HCl salt vs base (in words): higher than that of the base form
[1]; epidermis
  Jskin: 2.1 (2.4, 1.7) μg/cm^2 /h
[1]; stripped epidermis
  Jskin: 20.5 ± 4.3 μg/cm^2 /h
[1]
  increase of skin flux upon stripping (fold): 10 fold
[2]
  skin flux from saturated solutions, comparison (in words): relatively higher penetration than the base form
[3]
  logP: 2.63

## CO[C@]12CC[C@@]3(C[C@@H]1[C@](C)(O)C(C)(C)C)[C@H]1Cc4ccc(O)c5c4[C@@]3(CCN1CC1CC1)[C@H]2O5 [Buprenorphine, (5α, 7α (s))-17-(cyclopropylmethyl)-α (1,1-dimethylethyl)-4,5-epoxy18,19-dihydro-3-hydroxy-6-methoxy-α-methyl-6,14-ethenomorphinan-7-methanol]
physchem; Transcutol, 32° C.
  Solubility: 88600 µg/mL (≈ 189000 µM)
physchem; Water (deionized), 32° C.
  Solubility: 8 µg/mL (≈ 17.1 µM)
physchem; Water (deionized), 32° C., read-out: Solubility
  solubility: 8 µg/mL (≈ 17.1 µM)
physchem; equilibrium pH 5.0, 32° C.
  solubility thermodynamic: 692 µg/mL (≈ 1480 µM)
physchem; equilibrium pH 6.0, 32° C.
  solubility thermodynamic: 82 µg/mL (≈ 175 µM)
physchem; equilibrium pH 7.0, 32° C.
  solubility thermodynamic: 6 µg/mL (≈ 12.8 µM)
physchem; equilibrium pH 7.9, 32° C.
  solubility thermodynamic: 0.6 µg/mL (≈ 1.28 µM)
physchem; equilibrium pH 8.7, 32° C.
  solubility thermodynamic: 0.14 µg/mL (≈ 0.299 µM)
physchem; organic solvent or mixture, Ethanol (absolute), 32° C., read-out: Solubility
  solubility: 58400 µg/mL (≈ 125000 µM)
physchem; organic solvent or mixture, Isopropyl myristate, 32° C., read-out: Solubility
  solubility: 13300 µg/mL (≈ 28400 µM)
physchem; organic solvent or mixture, Propylene Glycol, 32° C., read-out: Solubility
  solubility: 5100 µg/mL (≈ 10900 µM)
physchem; organic solvent or mixture, Propylene glycol-monolaurate, 32° C., read-out: Solubility
  solubility: 37900 µg/mL (≈ 81000 µM)
physchem; organic solvent or mixture, Transcutol, 32° C., read-out: Solubility
  solubility: 88600 µg/mL (≈ 189000 µM)
physchem; pH 5.0 to 8.7
  solubility as a function of pH (in words): decreases exponentially as the pH increases
In vitro; equilibrium pH 5.0, 32° C.
  Jskin: 0.59 ± 0.13 μg/cm^2 /h
  Papp: 0.242 ×10⁻⁶ cm/s
In vitro; equilibrium pH 6.0, 32° C.
  Jskin: 0.48 ± 0.02 μg/cm^2 /h
  Papp: 1.64 ×10⁻⁶ cm/s
In vitro; equilibrium pH 7.0, 32° C.
  Jskin: 0.14 ± 0.01 μg/cm^2 /h
  Papp: 6.39 ×10⁻⁶ cm/s
In vitro; equilibrium pH 7.9, 32° C.
  Jskin: 0.05 ± 0.02 μg/cm^2 /h
  Papp: 23.1 ×10⁻⁶ cm/s
In vitro; equilibrium pH 8.7, 32° C.
  Jskin: 0.03 ± 0.01 μg/cm^2 /h
  Papp: 58.3 ×10⁻⁶ cm/s
In vitro; pH 8.7 to 5
  skin flux as a function of pH (in words): increased as the pH was decreased to 5
In vitro; pH raised to 8.7
  permeability coefficient as a function of pH (in words): increased as the pH was raised to 8.7
[1]; epidermis
  Jskin: 0.37 (0.35, 0.39) μg/cm^2 /h
[1]; stripped epidermis
  Jskin: 2.2 ± 0.3 μg/cm^2 /h
[1]
  increase of skin flux upon stripping (fold): 6 fold
pKa
  pKa: 8.4
[4]; Daily dose […] (i.v., tid)
  CIT (clearance, ClT): 77 ± 5 L/h
  T1/2 β: 3.1 ± 0.6 h
[4]; in vivo, iv
  Vdss: 188 ± 35 L
[4]; in vivo
  MEC (analgesics): 0.5 to 0.7 ng/mL
[3]
  logP: 3.09
